Like-named read-outs stand apart in the source and are kept apart here.
Tests used:
Caco-2 cells = conditions: human, Caco-2, 200 uM
Experimental: Caco-2 cells obtained from continuous culture (passage less than 28) were seeded at high density onto Transwell polycarbonate filters. […] Inserts were placed in 12 or 24 well plates containing buffer and incubated for 30 min at 37C°. Prodrug (200 µM) was added to the apical or basolateral compartment (donor) and concentrations of prodrug and/or released parent drug in the opposite compartment (receiver) were determined at intervals over 1 hour using LC/MS/MS. Values of apparent permeability (Papp) were calculated using the equation: Papp = Vr (dC/dt)//(ACo) [formula]
Here Vr is the volume of the receiver compartment in mL; dC/dt is the total flux of prodrug and parent drug (µM/s), determined from the slope of the plot of concentration in the receiver compartment versus time; Co is the initial concentration of prodrug in µM; A is the surface area of the membrane in cm^2.

pancreatin = format: in vitro ADME, porcine; conditions: 5 µM
Source text: The reaction was stopped by addition of 2 volumes of methanol.

[1] = format: physicochemical; conditions: after 60 min
Experimental: The chemical stability of prodrugs in aqueous buffers at pH's of 2.0, 7.4 and 8.0 were also measured. […] Each preparation was incubated with test compound at 37°C for one hour. Aliquots (50 µL) were removed at 0, 30, and 60 min and quenched with 0.1% trifluoroacetic acid in acetonitrile. Samples were then centrifuged and analyzed by LC/MS/MS (see Example 86 below for method details).

[2] = format: in vitro ADME; conditions: Rat Plasma, 2.0 µM, 37°C, after 60 min
Experimental: (§1) The stabilities of prodrugs were evaluated in one or more in vitro systems using a variety of tissue preparations following methods known in the art. […] Tissues were obtained from commercial sources (e.g., Pel-Freez Biologicals, Rogers, AR, or GenTest Corporation, Woburn, MA). […] Each preparation was incubated with test compound at 37°C for one hour. Aliquots (50 µL) were removed at 0, 30, and 60 min and quenched with 0.1% trifluoroacetic acid in acetonitrile. Samples were then centrifuged and analyzed by LC/MS/MS (see Example 86 below for method details). […] After centrifugation at 14,000 rpm for 10 min, the supernatant was removed and analyzed by LC/MS/MS. • Caco-2 Homogenate S9 Stability: Caco-2 cells were grown for 21 days prior to harvesting. Culture medium was removed and cell monolayers were rinsed and scraped off into ice-cold 10 mM sodium phosphate/0.15 M potassium chloride, pH 7.4. Cells were lysed by sonication at 4°C using a probe sonicator. Lysed cells were then transferred into 1.5 mL centrifuge vials and centrifuged at 9000 g for 20 min at 4°C. […]
(§2) For stability studies, prodrug (5 µM) was incubated in Caco-2 homogenate S9 fraction (0.5 mg protein per mL) for 60 min at 37°C. Concentrations of intact prodrug and released baclofen were determined at zero time and 60 minutes using LC/MS/MS.

[3] = format: in vitro ADME; conditions: Human Plasma, 2.0 µM, 37°C, after 60 min
Experimental: as §1, §2

[4] = format: in vitro ADME; conditions: Rat Liver S9 (0.5 mg/mL), 2.0 µM, NADPH, 37°C, after 60 min
Experimental: as §1, §2

[5] = format: in vitro ADME; conditions: Human Liver S9 (0.5 mg/mL), 2.0 µM, NADPH, 37°C, after 60 min
Experimental: as §1, §2

[6] = format: in vitro ADME; conditions: Caco-2 S9 (0.5 mg protein per mL), 5 µM, 37°C, after 60 min
Experimental: as §1, §2

[7] = oral; 2 mg t.i.d R-baclofen equivalent to 10 mg t.i.d. racemic baclofen; cited from earlier work
[8] = 1 % (w/v) pancreatin, pH 7.5, 37 °C, after 60 min

CC(=O)OCOC(=O)NC[C@H](CC(=O)[O-])c1ccc(Cl)cc1.[Na+] [(10), Sodium 4-[(Acetoxymethoxy)carbonylamino]-(3R)-(4-chlorophenyl)-butanoate]
Ratio A-B/B-A (Caco-2 cells): 1.2

O=C([O-])C[C@@H](CNC(=O)OCOC(=O)c1ccccc1)c1ccc(Cl)cc1.[Na+] [(12)]
Ratio A-B/B-A (Caco-2 cells): 5.9

O=C(O)C[C@@H](CNC(=O)OCOC(=O)C1CCCCC1)c1ccc(Cl)cc1 [(14), Sodium 4-[(Cyclohexanecarboxymethoxy)carbonylaminol-(3R)-(4-chlorophenyl)-butanoate]
% of Baclofen Released (pancreatin; [8]): 101% | % of Prodrug Remaining (pancreatin; [8]): 2% | Ratio A-B/B-A (Caco-2 cells): 4.1

CCCC(=O)OCOC(=O)NC[C@H](CC(=O)O)c1ccc(Cl)cc1 [(16), Sodium 4-[(Butanoyloxymethoxy)carbonylamino]-(3R)-(4-chlorophenyl)-butanoate]
% of Baclofen Released (pancreatin; pig, pancreatin, 1 h, pH 7.5): 84% | % of Prodrug Remaining (pancreatin; pig, pancreatin, 1 h, pH 7.5): 1%

CC(C)C(=O)OCOC(=O)NC[C@H](CC(=O)O)c1ccc(Cl)cc1 [(18), Sodium 4-[(Isobutanoyloxymethoxy)carbonylamino]-(3R)-(4-chlorophenyl)-butanoate]
% of Baclofen Released (pancreatin; pig, pancreatin, 1 h, pH 7.5): 91% | % of Prodrug Remaining (pancreatin; pig, pancreatin, 1 h, pH 7.5): 2%

CCCC(=O)OC(OC(=O)NC[C@H](CC(=O)O)c1ccc(Cl)cc1)C(C)C (stereo partly drawn) [(27), Sodium 4-[(1-Butanoyloxyisobutoxy)carbonylamino]-(3R)-(4-chlorophenyl)-butanoate]
% of Baclofen Released (pancreatin; [8]): 9% | % of Prodrug Remaining (pancreatin; [8]): 71% | Ratio A-B/B-A (Caco-2 cells): 6.9

CC(=O)OC(C)OC(=O)NC[C@H](CC(=O)O)c1ccc(Cl)cc1 (stereo partly drawn) [(30), Sodium 4-[(1-Acetoxyethoxy)carbonylamino]-(3R)-(4-chlorophenyl)-butanoate]
% of Baclofen Released (pancreatin; pig, pancreatin, 1 h, pH 7.5): 9% | % of Prodrug Remaining (pancreatin; pig, pancreatin, 1 h, pH 7.5): 90%

CCCC(=O)OC(C)OC(=O)NC[C@H](CC(=O)[O-])c1ccc(Cl)cc1.[Na+] (stereo partly drawn) [(32), Sodium 4-[(1-Butanoyloxyethoxy)carbonylamino]-(3R)-(4-chlorophenyl)-butanoate]
Ratio A-B/B-A (Caco-2 cells): 7.6

CC(OC(=O)NC[C@H](CC(=O)O)c1ccc(Cl)cc1)OC(=O)C1CCCCC1 (stereo partly drawn) [(38), Sodium 4-[(1-Cyclohexylcarbonyloxyethoxy)carbonylamino]-(3R)-(4-chlorophenyl)-butanoate]
Ratio A-B/B-A (Caco-2 cells): 1.1

CC(OC(=O)NC[C@H](CC(=O)[O-])c1ccc(Cl)cc1)OC(=O)c1ccccc1.[Na+] (some centres unmarked) [(40)]
% of Baclofen Released ([1]; aqueous buffer pH 2.0, 37°C): 0% | % of Prodrug Remaining ([1]; aqueous buffer pH 2.0, 37°C): 103% | % of Baclofen Released ([1]; aqueous buffer pH 7.4, 37°C): 0% | % of Prodrug Remaining ([1]; aqueous buffer pH 7.4, 37°C): 100% | % of Baclofen Released ([1]; aqueous buffer pH 8.0, 37°C): 2% | % of Prodrug Remaining ([1]; aqueous buffer pH 8.0, 37°C): 107% | % of Baclofen Released [2]: 17% | % of Prodrug Remaining [2]: 72% | % of Baclofen Released [3]: 2% | % of Prodrug Remaining [3]: 101% | % of Baclofen Released [4]: 96% | % of Prodrug Remaining [4]: 8% | % of Baclofen Released [5]: 105% | % of Prodrug Remaining [5]: 1% | % of Baclofen Released [6]: 85% | % of Prodrug Remaining [6]: 15% | % of Baclofen Released (pancreatin; pig, pancreatin, 1 h, pH 7.5): 58% | % of Prodrug Remaining (pancreatin; pig, pancreatin, 1 h, pH 7.5): 43%

CC(C)C(OC(=O)NC[C@H](CC(=O)O)c1ccc(Cl)cc1)OC(=O)C(C)(C)C (stereo partly drawn) [(43), Sodium 4-[(1-Pivaloyloxyisobutoxy)carbonylamino]-(3R)-(4-chlorophenyl)-butanoate]
% of Baclofen Released (pancreatin; [8]): 4% | % of Prodrug Remaining (pancreatin; [8]): 82% | Ratio A-B/B-A (Caco-2 cells): 2.3

CCC(=O)OC(OC(=O)NC[C@H](CC(=O)[O-])c1ccc(Cl)cc1)C(C)C.[Na+] (stereo partly drawn) [(48), Sodium 4-[(1-Propanoyloxyisobutoxy)carbonylamino]-(3R)-(4-chlorophenyl)-butanoate]
Ratio A-B/B-A (Caco-2 cells): 6.5

CCOC(C)(OCC)C(=O)OCOC(=O)NC[C@H](CC(=O)[O-])c1ccc(Cl)cc1.[Na+] [(51), Sodium 4-[(2,2-Diethoxypropanoyloxymethoxy)carbonylamino]-(3R)-(4-chlorophenyl)-butanoate]
Ratio A-B/B-A (Caco-2 cells): 3.0

COc1ccc(C(=O)OCOC(=O)NC[C@H](CC(=O)[O-])c2ccc(Cl)cc2)cc1.[Na+] [(53), Sodium 4-[(4-Methoxybenzoloxymethoxy)carbonylamino]-(3R)-(4-chlorophenyl)-butan oate]
Ratio A-B/B-A (Caco-2 cells): 2.4

O=C(O)C[C@@H](CNC(=O)OCOC(=O)CCc1ccccc1)c1ccc(Cl)cc1 [(62), Sodium 4-[(3-Phenylpropionoyloxymethoxy)carbonylamino]-(3R)-(4-chlorophenyl)-butanoate]
% of Baclofen Released (pancreatin; [8]): 79% | % of Prodrug Remaining (pancreatin; [8]): 1%

CCCC(OC(=O)NC[C@H](CC(=O)[O-])c1ccc(Cl)cc1)OC(=O)c1ccccc1.[Na+] (stereo partly drawn) [(71), Sodium 4-[(1-Benzoyloxybutoxy)carbonylamino]-(3R)-(4-chlorophenyl)-butanoate]
Ratio A-B/B-A (Caco-2 cells): 7.1

CCCC(OC(=O)NC[C@H](CC(=O)[O-])c1ccc(Cl)cc1)OC(=O)C(C)C.[Na+] (stereo partly drawn) [(72), Sodium 4-[(1-Isobutanoyloxybutoxy)carbonylamino]-(3R)-(4-chlorophenyl)-butanoate]
Ratio A-B/B-A (Caco-2 cells): 3.5

CCCC(=O)OC(CCC)OC(=O)NC[C@H](CC(=O)[O-])c1ccc(Cl)cc1.[Na+] (stereo partly drawn) [(73), Sodium 4-[(1-Butanoyloxybutoxy)carbonylamino]-(3R)-(4-chlorophenyl)-butanoate]
Ratio A-B/B-A (Caco-2 cells): 3.2

CCCC(=O)OC(CC)OC(=O)NC[C@H](CC(=O)[O-])c1ccc(Cl)cc1.[Na+] (stereo partly drawn) [(78), Sodium 4-[(1-Butanoyloxypropoxy)carbonylamino]-(3R)-(4-chlorophenyl)-butanoate]
Ratio A-B/B-A (Caco-2 cells): 7.9

CCCC(=O)O[C@H](CCC)OC(=O)NC[C@H](CC(=O)O)c1ccc(Cl)cc1 [(86), Sodium 4-{[(1S)-Butanoyloxybutoxy]carbonylamino}-(3R)-(4-chlorophenyl)-butanoate]
% of Baclofen Released (pancreatin; [8]): 76% | % of Prodrug Remaining (pancreatin; [8]): 4%

CCCC(=O)O[C@H](OC(=O)NC[C@H](CC(=O)O)c1ccc(Cl)cc1)C(C)C [(90), Sodium 4-{[(1R)-Butanoyloxyisobutoxy]carbonylamino}-(3R)-(4-chlorophenyl)-butanoate]
% of Baclofen Released (pancreatin; [8]): 68% | % of Prodrug Remaining (pancreatin; [8]): 9%

CC(C)C(=O)O[C@@H](OC(=O)NC[C@H](CC(=O)O)c1ccc(Cl)cc1)C(C)C [(104), 4-{[(1S)-Isobutanoyloxyisobutoxy]carbonylamino}-(3R)-(4-chlorophenyl) -butanoic Acid]
% of Baclofen Released (pancreatin; 1 % (w/v) pancreatin, pH 7.5, 37 °C, after 60 min, 60 min): 6% | % of Prodrug Remaining (pancreatin; pig, pancreatin, 1 h, pH 7.5): 90%

NC[C@H](CC(=O)O)c1ccc(Cl)cc1 [R-baclofen, R-(-)-baclofen]
potency relative to orally administered racemic baclofen [7]: about 5 fold
